From ChEMBL document CHEMBL3352681, “A cyclic GB virus C derived peptide with anti-HIV-1 activity targets the fusion peptide of HIV-1” (Eur J Med Chem, 2014) come the findings set out here.

The subject of data set [1] is Human immunodeficiency virus 1. Briefly: Binding affinity to biotin-labeled HIV1 fusion protein using 5 uM compound immobilized on microtiter plates by ELISA method.
Data set [2] concerns Human immunodeficiency virus 1. The experiment in a line: Binding affinity to biotin-labeled HIV1 fusion protein using compound immobilized on microtiter plates by ELISA method.
Data set [3] relates to Human immunodeficiency virus 1. The experiment in a line: Inhibition of biotin-labeled HIV1 fusion protein binding to immobilized E1P8cyc peptide by ELISA method.
Data set [4] deals with Human immunodeficiency virus 1. Briefly: Binding affinity to [W8]HIV1 fusion protein assessed as mole fraction partition coefficients in POPG liposomes by fluorescence assay. As to conditions: Microsome.
Data set [5] relates to Human immunodeficiency virus 1. The experiment in a line: Binding affinity to NBD-labeled HIV1 fusion protein in POPG LUVs at 0.0125 to 0.4 uM using Rho-labeled compound by FRET assay.
The subject of data set [6] is Murine leukemia virus. The experiment in a line: Binding affinity to NBD-labeled MLV fusion protein in POPG LUVs at 0.0125 to 0.4 uM using Rho-labeled compound by FRET assay.
In data set [7] the test system is Human immunodeficiency virus 1. The experiment in a line: Binding affinity to HIV1 fusion protein in DPPG lipid monolayers at 5% by compression isotherms analysis.
The subject of data set [8] is Human immunodeficiency virus 1. Briefly: Binding affinity to HIV1 fusion protein in DPPG lipid monolayers assessed as reduction in fusion protein-induced lipid layer phase transition at 5% by fluorescence microscopy.
Data set [9] has as its system Human immunodeficiency virus 1. Briefly: Inhibition of fusogenic capacity of HIV1 fusion protein in POPG LUVs assessed as reduction in fusion protein-induced vesicular permeabilization process at compound/fusion protein ratio of 20 by ANTS/DPX assay.
Data set [10] concerns the target T1, Melittin (Apis mellifera) (UniProt P01501).
T1 sequence (whole entry): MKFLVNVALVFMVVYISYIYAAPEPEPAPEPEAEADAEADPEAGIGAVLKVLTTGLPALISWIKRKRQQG
The experiment in a line: Binding affinity to bee venom melittin in POPG LUVs assessed as reduction in melittin-induced vesicular permeabilization process at compound/melittin ratio of 10 by ANTS/DPX assay.

Data set [11] deals with Human immunodeficiency virus 1. Briefly: Inhibition of fusogenic capacity of HIV1 fusion protein in rabbit RBCs assessed as reduction in fusion protein-induced hemolsysis at 1 to 100 uM after 60 mins.
Data set [12] can be described thus: Toxicity against rabbit RBCs assessed as induction of hemolysis after 60 mins. The data set is classed as cell-based, Oryctolagus cuniculus. As to conditions: erythrocyte, 1 h.
Data set [13] deals with Human immunodeficiency virus 1. The experiment in a line: Binding affinity to HIV1 fusion protein in POPG vesicles assessed as induction of conformational changes infusion secondary structure by CD spectroscopy.
For data set [14], the system named is Human immunodeficiency virus 1. The experiment in a line: Binding affinity to HIV1 fusion protein in PLGA nanoparticles assessed as protein-protein interactions by STD-NMR spectroscopy.
In data set [15] the test system is Human immunodeficiency virus 1. Briefly: Antiviral activity against HIV1 NL4-3 in cell based assay. The data set is classed as functional, organism-based. As to conditions: Human immunodeficiency virus 1, NL4-3.
Data set [16] relates to Human immunodeficiency virus 1. The experiment in a line: Antiviral activity against HIV1 NL4-3 infected in TZM-bl cells assessed as inhibition of viral replication. The data set is classed as functional, organism-based.
Data set [17] relates to HeLa. Briefly: Inhibition of HIV1 fusion protein assessed as inhibition of syncytium formation between HeLa cells expressing HIV-1 envelope protein and TZM-bl cells expressing human CD4 receptor. The data set is classed as cell-based. The settings on record: Human immunodeficiency virus 1.
Data set [18] deals with HeLa. The experiment in a line: Inhibition of HIV1 fusion protein assessed as inhibition of syncytium formation between HeLa cells expressing HIV-1 envelope protein and TZM-bl cells expressing human CXCR4 receptor. The data set is classed as cell-based. The settings on record: Human immunodeficiency virus 1.
Data set [19] concerns HeLa. Briefly: Inhibition of HIV1 fusion protein assessed as inhibition of syncytium formation between HeLa cells expressing HIV-1 envelope protein and TZM-bl cells expressing human CCR5 receptor. The data set is classed as cell-based. As to conditions: Human immunodeficiency virus 1.
The subject of data set [20] is Human immunodeficiency virus 1. Briefly: Inhibition of fusogenic capacity of HIV1 fusion protein in rabbit RBCs assessed as reduction in fusion protein-induced hemolsysis at 10 to 1000 uM after 60 mins.

The source made the active and inactive calls. The rule behind the calls is not given here. Peptide text beside a SMILES is read from it.

Consider `CC[C@H](C)[C@H](NC(=O)[C@H](CC(=O)O)NC(=O)[C@H](CCC(=O)O)NC(=O)[C@@H]1CCCN1C(=O)[C@H](C)N)C(=O)NCC(=O)N[C@@H](Cc1ccccc1)C(=O)N[C@H]1CSSC[C@@H](C(=O)N[C@@H](CC(C)C)C(=O)N[C@H](C(=O)N[C@@H](C)C(=O)N[C@@H](CC(C)C)C(=O)NCC(=O)O)C(C)C)NC(=O)CNC(=O)CNC(=O)[C@H](CCC(=O)O)NC(=O)[C@H](CC(C)C)NC1=O` (HELM PEPTIDE1{A.P.E.D.I.G.F.C.L.E.G.G.C.L.V.A.L.G}$PEPTIDE1,PEPTIDE1,8:R3-13:R3$$$V2.0), for which the result in data set [1], in data set [3], in data set [5], in [7], in [8] and in data set [13] was Active. Besides, the outcome in data set [14] was Active. Moreover, the Activity entry in data set [2] is “Dose-dependent effect”; in [12] it was “Non-toxic”. Also, in [4], the K (mole fraction) was determined as 580000. In addition, the result in [6] and in data set [10] was inactive. Also, the Imax in data set [9] was 40%. In data set [11], the inhibition result was “Dose-dependent effect”. In [15], this compound registered an IC50 of 7.8 µM.
For H-SGVLTVGVALTRRVYPVP-OH, the outcome in data set [16], in data set [1], in data set [3] and in data set [13] was inactive. Besides, the inhibition entry in [17], in [18], in data set [19], in [9] and in data set [20] was “inactive” throughout.
On to `CC[C@H](C)[C@H](NC(=O)[C@H](CC(=O)O)NC(=O)[C@H](CCC(=O)O)NC(=O)[C@@H]1CCCN1C(=O)[C@H](C)N)C(=O)NCC(=O)N[C@@H](Cc1ccccc1)C(=O)N[C@@H](CS)C(=O)N[C@@H](CC(C)C)C(=O)N[C@@H](CCC(=O)O)C(=O)NCC(=O)NCC(=O)N[C@@H](CS)C(=O)N[C@@H](CC(C)C)C(=O)N[C@H](C(=O)N[C@@H](C)C(=O)N[C@@H](CC(C)C)C(=O)NCC(=O)O)C(C)C` (H-APEDIGFCLEGGCLVALG-OH), for which the outcome in data set [1] and in data set [14] was inactive. In data set [4], the K (mole fraction) is 730000. For the same compound, the inhibition result in data set [9] and in data set [20] was “Active” in each case. Besides, the result in [13] was Active.
Regarding H-LEAIPCSIPPEFLFGKPFVF-OH, the outcome in data set [16], in data set [1], in [5], in [7], in data set [8] and in data set [13] was Active. In addition, the inhibition entry in data set [17], in [18], in data set [19] and in data set [11] was “Active” throughout. The Activity entry in data set [12] is listed as “Non-toxic”. In addition, the result in data set [14] was inactive.
